Data set [1] has as its system SW620 cells. Description: Cell cycle distribution by flow cytometry, SW620. It counts as cell-based, human. The settings on record: concentration equal to IC75 of (S)-1 / (R)-1, mean ± SEM, n = 3; for Cell cycle fraction G1, 24 h / Cell cycle fraction G2/M, 24 h / Cell cycle fraction S, 24 h: SW620, 24 h; for Cell cycle fraction G1, 48 h / Cell cycle fraction G2/M, 48 h / Cell cycle fraction S, 48 h: SW620, 48 h. The gist of the method: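 SW620 (and resistant SW620E) cells seeded at 10^5/well, exposed to compounds 24 and 48 h, ethanol-fixed, then stained with 75 μM propidium iodide plus RNase A for 30 min at 37 °C. Flow cytometry read-out; phase distribution by the Watson pragmatic algorithm.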
(A flow cytometer gives signals particle by particle.)

Data set [2] deals with A549. In words: Neutral red uptake antiproliferative assay, A549. The settings on record: for IC50: read-out: IC50 A549, exposure time 72 h, n = 3, 95% CI given; for activity factor IC50(1)/IC50(3a–4d), A549: vs corresponding amine (R)-1 or (S)-1, 72 h. The gist of the method: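 Neutral red uptake, 70 h drug exposure + 2 h dye (1 mM final). 10^4 cells/well seeded overnight; high-glucose DMEM/10% FBS, 37 °C, 5% CO2; DMSO 0.1% v/v. Dye released in 1% acetic acid/50% ethanol, A540. IC50, IC90 by 5-parameter nonlinear logistic regression.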

The test system of data set [3] is SW620D. Description: Neutral red uptake antiproliferative assay, MDR line SW620D. The class given is cell-based, human. Conditions: for IC50: exposure time 72 h, n = 3, ABCB1-overexpressing MDR line; for activity factor IC50(1)/IC50(3a–4d), SW620D: vs corresponding amine (R)-1 or (S)-1, 72 h. The gist of the method: (§1)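 Read-out: neutral red uptake, normalised to untreated control (% of control). Cells: SW620 MDR sublines; SW620C/SW620Mito overexpress ABCG2, SW620M ABCC1, SW620D ABCB1.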

Data set [4] is described as follows: Stability study in the presence of L-cysteine (UV-vis, HPLC-MS). The class given is physicochemical. Conditions: 20 μM complex, 0.2 mM L-cysteine in water, 0.5 vol % DMSO, followed over 2 h. The text has this: For biological studies, compounds are commonly administered as dimethyl sulfoxide (DMSO) solution to cells cultured in a specific medium such as Dulbecco’s modified Eagle’s medium (DMEM). DMEM consists of numerous organic compounds which may act as ligands for organometallics. Therefore, it is important to know how the compounds behave in such conditions. The two most prominent components of DMEM which may coordinate to half-sandwich complexes are L-cysteine and L-histidine. Both of those amino acids are present in DMEM at 0.2 mM concentration, so we studied how the complexes interact with them using UV–vis spectroscopy and HPLC-MS analysis. The DMSO solutions of complexes were added to the aqueous solution of L-cysteine or L-histidine to achieve a complex concentration of 20 μM while keeping the DMSO concentration at 0.5 vol %. […] HPLC-MS analysis confirmed the formation of an additional peak at τ = 0.95 min with m/z 714 assigned to [M-Cl-PF6 + HCOOH]^+; additionally, the intensity of peaks corresponding to 3c is lower (Figure S26). […] The intensity of absorbance peaks at λ = 287 and λ = 372 nm in the presence of cysteine is decreasing, while the intensity of peaks at λ = 304 and λ = 318 nm is almost intact.
The stability of 3a–d was studied in the presence of L-cysteine or L-histidine. 3a–d were dissolved in DMSO and added to 0.2 mM aqueous solution of L-cysteine or L-histidine to achieve the complex concentration of 20 μM while keeping the DMSO concentration at 0.5 vol %. UV–vis spectra were recorded over 2 h with 10 min intervals.

For data set [5], the system named is SW620C. In words: Neutral red uptake antiproliferative assay, MDR line SW620C. It counts as cell-based, human. The settings on record: for IC50: exposure time 72 h, n = 3, ABCG2-overexpressing MDR line; for activity factor IC50(1)/IC50(3a–4d), SW620C: vs corresponding amine (R)-1 or (S)-1, 72 h. The gist of the method: as §1
The subject of data set [6] is SW620E. Description: Neutral red uptake antiproliferative assay, MDR line SW620E. The class given is cell-based, human. Conditions: for IC50: exposure time 72 h, n = 3, ABCC1- and ABCB1-overexpressing MDR line; for activity factor IC50(1)/IC50(3a–4d), SW620E: vs corresponding amine (R)-1 or (S)-1, 72 h.

Read-outs that look alike come from different tables or passages of the source.

Broadly, the IC50 is the point on the concentration scale where inhibition reaches its midpoint. For the compound `CC(C)[C@@H](N=Cc1ccccn1)c1nc2cc(Cl)ccc2c(=O)n1Cc1ccccc1.Cc1ccc(C(C)C)cc1.F[P-](F)(F)(F)(F)F.[Cl-].[Ru+2]` [Compound 3a, [(cym)Ru((R)-2)Cl]PF6], in data set [1], the “Cell cycle fraction G1, 24 h” value is recorded as 51.9 ± 1.0%; the “Cell cycle fraction G2/M, 24 h” value is 32.5 ± 1.5%; the “Cell cycle fraction S, 24 h” value is given as 14.9 ± 0.6%; the “Cell cycle fraction G1, 48 h” value is 44.8 ± 0.7%. Besides, in data set [1], the “Cell cycle fraction G2/M, 48 h” value is given as 40.2 ± 1.1% and the “Cell cycle fraction S, 48 h” value is 14.3 ± 0.4%. In addition, in data set [2], the half-maximal inhibitory concentration (IC50) is 2450 nM and the “activity factor IC50(1)/IC50(3a–4d), A549” value was “(0.902)”. Further, in data set [3], the IC50 was 7230 nM and the “activity factor IC50(1)/IC50(3a–4d), SW620D” value is on record as “(0.155)”. Further, the “reaction with L-cysteine (stability)” value in data set [4] is on record as “neither ruthenium 3a nor the osmium complex 3b reacts with those amino acids within 2 h”. For the same compound, in data set [5], the half-inhibitory concentration (IC50) worked out at 4380 nM and the “activity factor IC50(1)/IC50(3a–4d), SW620C” value was “(0.165)”. Moreover, in data set [6], the half-inhibitory concentration (IC50) amounted to 5520 nM and the “activity factor IC50(1)/IC50(3a–4d), SW620E” value is “(0.151)”.
Take `CC(C)[C@@H](N=Cc1ccccn1)c1nc2cc(Cl)ccc2c(=O)n1Cc1ccccc1.Cc1c(C)c(C)[c-](C)c1C.F[P-](F)(F)(F)(F)F.[Cl-].[Rh+3]` [Compound 3c, [(Cp*)Rh((R)-2)Cl]PF6]: in data set [1], the “Cell cycle fraction G1, 24 h” value worked out at 33.9 ± 2.5%; the “Cell cycle fraction G2/M, 24 h” value stood at 40.9 ± 3.5%; the “Cell cycle fraction S, 24 h” value is listed as 24.2 ± 1.4%; the “Cell cycle fraction G1, 48 h” value is 23.1 ± 1.7%. In addition, in data set [1], the “Cell cycle fraction G2/M, 48 h” value stood at 54.5 ± 1.8% and the “Cell cycle fraction S, 48 h” value is 20.8 ± 2.2%. For the same compound, in data set [2], the concentration for half-maximal inhibition (IC50) is 1160 nM and the “activity factor IC50(1)/IC50(3a–4d), A549” value was “(1.90)”. Besides, the “increased cytotoxicity vs corresponding amine 1, A549” value (from here on “increased cytotoxicity”) in data set [2] (rounded value) is on record as 2 fold. Further, in data set [3], inhibition was half-maximal at 4180 nM (IC50) and the “activity factor IC50(1)/IC50(3a–4d), SW620D” value is on record as “(0.268)”. Also, in data set [4], the “reaction with L-cysteine (stability)” value is reported as “slowly reacts with L-cysteine”. Further, in data set [5], the 50% inhibitory concentration (IC50) was 592 nM and the “activity factor IC50(1)/IC50(3a–4d), SW620C” value is “(1.22)”. Moreover, in data set [6], the IC50 is 880 nM and the “activity factor IC50(1)/IC50(3a–4d), SW620E” value is “(0.949)”.
Turning to `CC(C)[C@@H](N=Cc1ccccn1)c1nc2cc(Cl)ccc2c(=O)n1Cc1ccccc1.Cc1ccc(C(C)C)cc1.F[P-](F)(F)(F)(F)F.[Cl-].[Os+2]` [Compound 3b, [(cym)Os((R)-2)Cl]PF6], in data set [1], the “Cell cycle fraction G1, 24 h” value is recorded as 51.4 ± 1.2%; the “Cell cycle fraction G2/M, 24 h” value was 35.3 ± 1.4%; the “Cell cycle fraction S, 24 h” value worked out at 12.5 ± 2.1%; the “Cell cycle fraction G1, 48 h” value turned out to be 41.4 ± 0.7%. In data set [1], the “Cell cycle fraction G2/M, 48 h” value is given as 45.0 ± 0.5% and the “Cell cycle fraction S, 48 h” value turned out to be 12.7 ± 1.1%. Also, in data set [2], the “increased cytotoxicity” value was 2 fold; the half-inhibitory concentration (IC50) amounted to 1040 nM; the “activity factor IC50(1)/IC50(3a–4d), A549” value is “(2.12)”. Also, in data set [3], it took 3920 nM to reach half-maximal inhibition (IC50) and the “activity factor IC50(1)/IC50(3a–4d), SW620D” value is on record as “(0.286)”. In addition, in data set [4], the “reaction with L-cysteine (stability)” value is on record as “neither ruthenium 3a nor the osmium complex 3b reacts with those amino acids within 2 h”. Besides, in data set [5], half-maximal inhibition (IC50) was put at 1170 nM and the “activity factor IC50(1)/IC50(3a–4d), SW620C” value is listed as “(0.616)”. Moreover, in data set [6], the IC50 was 3520 nM and the “activity factor IC50(1)/IC50(3a–4d), SW620E” value is “(0.237)”.
For `CC(C)[C@@H](N=Cc1ccccn1)c1nc2cc(Cl)ccc2c(=O)n1Cc1ccccc1.Cc1c(C)c(C)[c-](C)c1C.F[P-](F)(F)(F)(F)F.[Cl-].[Ir+3]` [Compound 3d, [(Cp*)Ir((R)-2)Cl]PF6], in data set [1], the “Cell cycle fraction G1, 24 h” value was 30.8 ± 0.8%; the “Cell cycle fraction G2/M, 24 h” value worked out at 43.4 ± 1.5%; the “Cell cycle fraction S, 24 h” value is 25.4 ± 0.8%; the “Cell cycle fraction G1, 48 h” value came to 24.3 ± 1.2%. In addition, in data set [1], the “Cell cycle fraction G2/M, 48 h” value came to 55.9 ± 1.1% and the “Cell cycle fraction S, 48 h” value is 19.3 ± 0.4%. In addition, in data set [2], the IC50 turned out to be 1130 nM and the “activity factor IC50(1)/IC50(3a–4d), A549” value was “(1.96)”. In data set [2] (rounded value), the “increased cytotoxicity” value turned out to be 2 fold. In data set [3], the midpoint of inhibition, the IC50, lay at 644 nM and the “activity factor IC50(1)/IC50(3a–4d), SW620D” value is reported as “(1.74)”. Moreover, in data set [3] (rounded value), the “higher cytotoxicity than corresponding amine 1, SW620D” value is recorded as 1.7 fold. Moreover, the “reaction with L-cysteine (stability)” value in data set [4] was “reacts with both L-cysteine and L-histidine (Figure 6) in 40 min”. Moreover, in data set [5], 335 nM corresponded to half-maximal inhibition (IC50) and the “activity factor IC50(1)/IC50(3a–4d), SW620C” value was “(2.15)”. The “higher cytotoxicity than corresponding amine 1, SW620C” value in data set [5] (rounded value) is 2.2 fold. Further, in data set [6], the midpoint of inhibition, the IC50, lay at 1020 nM and the “activity factor IC50(1)/IC50(3a–4d), SW620E” value was “(0.819)”.

The record behind these values is paper PMC11044151, “Development of Half-Sandwich Ru, Os, Rh, and Ir Complexes Bearing the Pyridine-2-ylmethanimine Bidentate Ligand Derived from 7-Chloroquinazolin-4(3H)-one with Enhanced Antiproliferative Activity” (ACS Omega, 2024).
